What was measured:
Assay type in all cases: cell-based
[1] = molecular target: T1, Toll-like receptor 8 (Homo sapiens) (UniProt Q9NR97); assay: Agonist activity at human TLR8 expressed in HEK293 cells after 6 hrs by NFkappaB-luciferase reporter gene assay
T1 sequence (whole entry): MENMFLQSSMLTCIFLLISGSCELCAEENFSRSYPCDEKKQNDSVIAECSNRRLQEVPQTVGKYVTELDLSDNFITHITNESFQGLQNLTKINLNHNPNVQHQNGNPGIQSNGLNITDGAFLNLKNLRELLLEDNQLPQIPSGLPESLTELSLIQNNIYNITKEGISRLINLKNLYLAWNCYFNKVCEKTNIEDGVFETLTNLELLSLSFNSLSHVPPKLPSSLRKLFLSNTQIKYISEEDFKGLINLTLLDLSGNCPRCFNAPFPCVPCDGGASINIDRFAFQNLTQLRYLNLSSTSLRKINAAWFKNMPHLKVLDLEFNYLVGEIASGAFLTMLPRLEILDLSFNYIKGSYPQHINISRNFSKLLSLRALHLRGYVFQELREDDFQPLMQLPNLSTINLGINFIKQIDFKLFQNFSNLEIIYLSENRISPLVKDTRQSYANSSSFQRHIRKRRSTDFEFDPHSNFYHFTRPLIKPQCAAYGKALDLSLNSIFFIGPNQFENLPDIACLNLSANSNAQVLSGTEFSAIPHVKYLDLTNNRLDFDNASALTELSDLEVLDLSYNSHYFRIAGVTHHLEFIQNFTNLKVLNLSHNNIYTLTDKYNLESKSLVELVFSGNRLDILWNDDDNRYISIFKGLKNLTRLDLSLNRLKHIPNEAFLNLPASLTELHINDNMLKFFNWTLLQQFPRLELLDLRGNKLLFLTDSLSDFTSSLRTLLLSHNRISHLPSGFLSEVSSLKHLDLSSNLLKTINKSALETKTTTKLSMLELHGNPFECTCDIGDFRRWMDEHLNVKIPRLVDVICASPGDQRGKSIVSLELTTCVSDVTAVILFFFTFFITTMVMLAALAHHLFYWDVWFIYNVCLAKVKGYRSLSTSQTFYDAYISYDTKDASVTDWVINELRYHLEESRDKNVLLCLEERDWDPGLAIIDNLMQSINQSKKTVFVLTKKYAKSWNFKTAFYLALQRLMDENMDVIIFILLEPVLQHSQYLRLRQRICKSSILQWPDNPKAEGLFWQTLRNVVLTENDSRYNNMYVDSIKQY

[2] = molecular target: T2, Toll-like receptor 7 (Homo sapiens) (UniProt Q9NYK1); assay: Agonist activity at human TLR7 expressed in HEK293 cells after 6 hrs by NFkappaB-luciferase reporter gene assay
T2 sequence (whole entry): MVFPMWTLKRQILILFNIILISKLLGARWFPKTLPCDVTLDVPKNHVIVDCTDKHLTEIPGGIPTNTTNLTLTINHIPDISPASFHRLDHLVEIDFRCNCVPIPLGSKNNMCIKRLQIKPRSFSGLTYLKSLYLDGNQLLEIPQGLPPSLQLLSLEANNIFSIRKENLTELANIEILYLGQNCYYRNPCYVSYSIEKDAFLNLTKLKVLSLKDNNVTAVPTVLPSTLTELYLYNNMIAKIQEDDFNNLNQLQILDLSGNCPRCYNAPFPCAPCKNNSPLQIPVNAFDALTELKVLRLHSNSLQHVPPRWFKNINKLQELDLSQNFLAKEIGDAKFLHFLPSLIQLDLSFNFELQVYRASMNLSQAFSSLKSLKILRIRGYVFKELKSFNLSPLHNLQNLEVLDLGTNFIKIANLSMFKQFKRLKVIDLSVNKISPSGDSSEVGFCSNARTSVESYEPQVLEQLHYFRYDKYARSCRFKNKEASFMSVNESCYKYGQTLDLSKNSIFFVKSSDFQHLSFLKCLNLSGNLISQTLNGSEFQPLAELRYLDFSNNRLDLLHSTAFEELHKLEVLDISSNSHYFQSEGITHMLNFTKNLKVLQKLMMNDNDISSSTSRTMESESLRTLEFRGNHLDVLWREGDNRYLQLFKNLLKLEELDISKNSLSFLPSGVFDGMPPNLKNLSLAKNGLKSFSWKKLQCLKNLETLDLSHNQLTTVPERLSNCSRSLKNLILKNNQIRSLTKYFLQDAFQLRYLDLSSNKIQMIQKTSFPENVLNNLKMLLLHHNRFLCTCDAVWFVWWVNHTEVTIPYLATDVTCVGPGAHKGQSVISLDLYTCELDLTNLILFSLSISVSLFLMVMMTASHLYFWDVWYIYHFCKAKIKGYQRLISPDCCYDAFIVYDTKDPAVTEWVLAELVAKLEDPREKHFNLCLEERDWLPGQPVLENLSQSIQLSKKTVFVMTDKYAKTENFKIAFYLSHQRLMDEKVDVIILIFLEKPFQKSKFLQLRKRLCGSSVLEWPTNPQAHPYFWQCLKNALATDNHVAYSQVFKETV

[3] = Cytotoxicity against HEK293 cells transfected with the CMV-TLR7 construct assessed as reduction in cell viability after 6 hrs by ATPlite assay; settings: human
[4] = molecular target: T2, Toll-like receptor 7 (Homo sapiens); assay: Agonist activity at TLR7 in human PBMC assessed as suppression of HCV replicon replication in human HuH7 luc/neo cells harboring RNA encoding bicistronic expression construct comprising wild type HCV type 1b NS3-NS5B regions exposed to conditioned media from compound treated PBMCs after 24 hrs by luciferase reporter gene assay

Row | Structure (SMILES) | MEC [1] [µM] | MEC [2] [µM] | CC50 at 6 h [3] [µM] | MEC [4] [µM]
1 | CCCCNc1nc(N)nc2c1CN(CCc1ccccc1)CC2 | 0.2 | 1.8 | > 24 | –
2 | CCCCNc1nc(N)nc2c1CCN(Cc1ccccc1)C2 | 0.4 | 11 | > 24 | –
3 | CCCCNc1nc(N)nc2c1CN(Cc1cc(F)cc(F)c1)CC2 | 0.23 | 3.5 | > 24 | 0.53
4 | CCCCNc1nc(N)nc2c1CN(S(C)(=O)=O)CC2 | 9.9 | > 25 | > 24 | –
5 | CCCCNc1nc(N)nc2c1CN(C(C)=O)CC2 | 0.5 | 4.9 | > 24 | –
6 | CCCCNc1nc(N)nc2c1CCN(CCc1ccccc1)C2 | 0.2 | 6.5 | > 24 | –
7 | CCCCNc1nc(N)nc2c1CN(C(=O)c1scnc1C)CC2 | 5.6 | 13 | > 24 | 2.23
8 | CCCCNc1nc(N)nc2c1CN(Cc1ccc(-c3ccccc3)cc1)CC2 | 0.5 | 14 | > 24 | 4.49
9 | CCCCNc1nc(N)nc2c1CCN(C(C)=O)C2 | 0.4 | 5.8 | > 24 | –
10 | CCCCNc1nc(N)nc2c1CCN(S(C)(=O)=O)C2 | 0.8 | 20 | > 24 | –
11 | CCCCNc1nc(N)nc2c1CN(Cc1ccco1)CC2 | 0.08 | 3.7 | > 24 | 0.07
12 | CCOCc1nc2c(N)nc3ccccc3c2n1CC(C)(C)O | 0.3 | 0.1 | – | –
13 | CCCCNc1nc(N)nc2c1CN(C(=O)CC)CC2 | 0.4 | 2.3 | > 24 | 0.53
14 | CCCCNc1nc(N)nc2c1CN(Cc1ccc(C(C)(C)C)cc1)CC2 | 0.66 | 19 | > 24 | 2.79
15 | CCCCNc1nc(N)nc2c1CCNC2 | 0.6 | 8.9 | > 24 | –
16 | CCCCNc1nc(N)nc2c1CN(Cc1ccccc1Cl)CC2 | 0.05 | 1.5 | > 24 | 0.15
17 | CCCCNc1nc(N)nc2c1CN(Cc1cccc(OC)c1Cl)CC2 | 0.04 | 1 | > 24 | 0.05
18 | CCCCNc1nc(N)nc2c1CN(C(=O)c1ccccn1)CC2 | 2.9 | 9.5 | > 24 | 2.21

Row | Structure (SMILES) | MEC [1] [µM] | MEC [2] [µM] | CC50 at 6 h [3] [µM] | MEC [4] [µM]
19 | CCCCNc1nc(N)nc2c1CN(C(=O)C1CCC1)CC2 | 0.4 | 0.8 | > 24 | 0.23
20 | CCCCNc1nc(N)nc2c1CN(C(=O)c1cc(C)on1)CC2 | 0.4 | 0.8 | > 24 | 0.22
21 | CCCCNc1nc(N)nc2c1CN(C(=O)c1cnc(N)s1)CC2 | 4.4 | 2.1 | > 24 | 0.38
22 | CCCCNc1nc(N)nc2c1CN(Cc1cccc3ccccc13)CC2 | 0.43 | 1.3 | > 24 | 0.43
23 | CCCCNc1nc(N)nc2c1CN(Cc1cccc(Cl)c1Cl)CC2 | 0.18 | 1.5 | > 24 | 0.25
24 | CCCCNc1nc(N)nc2c1CN(C(=O)c1ccccc1)CC2 | 1.4 | 1.5 | > 24 | –
25 | CCCCNc1nc(N)nc2c1CNCC2 | 7.2 | > 25 | > 24 | –
26 | CCCCNc1nc(N)nc2c1CN(Cc1c(Cl)cccc1Cl)CC2 | 0.14 | 2.4 | > 24 | 0.19
27 | CCCCNc1nc(N)nc2c1CN(Cc1ccccn1)CC2 | 0.07 | 3.3 | > 24 | 0.14
28 | CCCCNc1nc(N)nc2c1CN(Cc1ccc(OC)cc1)CC2 | 0.08 | 2.1 | > 24 | 0.17
29 | CCCCNc1nc(N)nc2c1CN(C(=O)C(C)C)CC2 | 1.6 | 8.1 | > 24 | 1.8
30 | CCCCNc1nc(N)nc2c1CN(Cc1ccc(OC(F)(F)F)cc1)CC2 | 0.24 | 4.7 | > 24 | 0.52
31 | CCCCNc1nc(N)nc2c1CN(Cc1ccncc1)CC2 | 0.29 | 5.2 | > 24 | 0.5
32 | CCCCNc1nc(N)nc2c1CN(C(=O)c1csnn1)CC2 | 0.1 | 0.9 | > 24 | 0.15
33 | CCCCNc1nc(N)nc2c1CN(Cc1ccccc1)CC2 | 0.06 | 1.6 | > 24 | –
34 | CCCCNc1nc(N)nc2c1CN(C)CC2 | 0.03 | 9.6 | > 24 | –
35 | CCCCNc1nc(N)nc2c1CCN(C)C2 | 0.2 | 10 | > 24 | –
